One may read the Km as the concentration of substrate that gives half-maximal velocity. By Vmax is commonly meant the top rate of the reaction or transport when substrate is in excess. A word on the kcat: it is the number of substrate molecules converted per active site and unit of time at saturation.

Entries after “also recorded” stand apart in the source; their conditions may differ. Structures can show the parent of a compound that is named as a salt.

The text below walks through data of patent publication US11661398B2, “Cellular transport system for transferring a sulfonic acid construct carrying a cargo into the cytoplasm of a cell” (Scientist of Fortune, S.A., priority 2017, dated 2023).

In one assay the target is PnGGT ΔN24 (Pseudomonas nitroreducens, UniProt E0D5C2). As to the kind of experiment: Kinetic measurements with purified PnGGT ΔN24. The format is biochemical. As to the method: (§1) For the experiments relating to the sulfonate based synthetic transport system, purification of PnGGT ΔN24 and PnGGT ΔN24 D405N containing an N-terminal 6×His-tag was performed according to previous reports (Van Dyke et al., 1992) using Ni-NTA Superflow (Qiagen, Hilden, Germany). For kinetic studies, PnGGT variants were purified with the aid of the 6×His-tag located at the N-terminal end of the large subunit following the same procedure. To exchange the buffer, purified proteins were dialyzed against 50 mM Tris/HCl (pH 7.0).
(§2) To determine the kinetic parameters of PnGGT ΔN24 and PnGGT ΔN24 D405N the purified enzymes were preincubated in 50 mM Tris-HCl (pH 9.0). To start the reaction, varying concentrations of the substrates L-glutamic acid γ-(3-carboxy-4-nitroanilide) or sulfobutanoyl-p-nitroanilide were added to the mixtures. The results were evaluated using GraphPad Prism (GraphPad Software, La Jolla, Calif., USA).

Another assay relates to PnGGT* D385Y. As to the kind of experiment: GGT* activity assay with cell free extracts of PnGGT* mutant variants. The format is biochemical, Pseudomonas nitroreducens. Conditions: 2 mM substrate. As to the method:
(§3) FIG. 29. Expression analysis of selected PnGGT* mutant variants. Strain TK018 was transformed with the empty vector pACT3, the parent plasmid pPnGGT* or selected mutant variants thereof and grown in LB medium to early exponential phase. Synthesis of the PnGGT* variants was induced for 4 hours by adding 0.5 mM IPTG to the culture. (a) GGT* activity assays with cell free extracts and 2 mM of the substrate sulfobutanoyl-p-nitroanilide. […] Bars represent the average of three independent measurements with standard deviations shown as error bars. (b) SDS-PAGE of cell free extracts to confirm loading of similar protein amounts. (c) Western Blot of cell free extracts with an antibody directed against the large subunit of PnGGT* (38.5 kDa). Mutant variants Y167V Q168P and Y167H Q168G were synthesized slightly less efficiently than PnGGT*. All other mutant variants were synthesized with similar efficiency as PnGGT*.

The subject of the next assay is PnGGT* P505T. The assay is described as above. The assay is classed as biochemical, Pseudomonas nitroreducens. Conditions: 2 mM substrate, sodium salt. How it is done:
as §3

A further assay concerns BW25113 ΔleuB (TK080). As to the kind of experiment: Growth on different sulfur sources. Conditions: 1 mM sulfur source, minimal medium, 0.5% glucose, 0.4 mM leucine. The assay is classed as cell-based, E. coli. How it is done:
FIG. 21: Growth of E. coli on sulfonates. Strains TK080 (a; BW25113 ΔleuB) and TK082 (b; BW25113 ΔleuB ΔssuEADCB ΔtauD) were grown in MS minimal medium supplemented with 0.5% glucose, 0.4 mM L-leucine, 1 mM MgCl2 and 1 mM of a sulfur source. TK080 was able to use the majority of the tested sulfur sources with a similar efficiency as sulfate. […] Dots represent the average of three independent measurements with standard deviations shown as error bars.
For the experiments relating to the sulfonate based synthetic transport system, unless stated otherwise, growth experiments in selective medium were carried out in sulfur free MS minimal medium (4 mM citric acid, 1 mM MgCl2, 20 mM NH4Cl, 50 mM KH2PO4 and 1×NTA mix (10 μM nitrilotriacetic acid, 3 μM CaCl2, 3 μM FeCl3, 1 μM MnCl2, 0.3 μM ZnCl2, 0.3 μM H3B3, 0.3 μM CrC3, 0.3 μM COCl2, 0.3 μM CuCl2, 0.3 μM Ni2C, 0.3 μM Na2MoO4, 0.3 μM Na2SeO3)) supplemented with 0.5% glucose. MgSO4 (1 mM), MgCl2 (1 mM), L-leucine (0.4 mM), IPTG (0.5 mM), aTc (100 ng mL-1), nicotinic acid (various concentrations), 3-picolylamine (various concentrations) and sulfonates (various concentrations) as indicated in the text. […] Synthesis schemes for sulfobutanoyl-p-nitroanilide and other sulfonates are given below.
The sulfonate transporters SsuABC and TauABC transport a wide variety of sulfonate compounds (Eichhorn et al., 2000) and can thus be exploited for the present synthetic transport system. As such, the uptake and utilization of sulfobutanoyl-L-leucine was assessed. The leucine auxotrophic strain BW25113 ΔleuB was tested for growth in minimal medium supplemented with 0.5% glucose, 0.4 mM leucine, 0.4 mM isoleucine and 1 mM of a sulfur-containing compound as the sole sulfur source.

In another assay the target is T1, PnGGT ΔN24 D405N (Pseudomonas nitroreducens, UniProt E0D5C2, D405N).
T1 sequence (E0D5C2 with tags, fused parts or gaps D405N): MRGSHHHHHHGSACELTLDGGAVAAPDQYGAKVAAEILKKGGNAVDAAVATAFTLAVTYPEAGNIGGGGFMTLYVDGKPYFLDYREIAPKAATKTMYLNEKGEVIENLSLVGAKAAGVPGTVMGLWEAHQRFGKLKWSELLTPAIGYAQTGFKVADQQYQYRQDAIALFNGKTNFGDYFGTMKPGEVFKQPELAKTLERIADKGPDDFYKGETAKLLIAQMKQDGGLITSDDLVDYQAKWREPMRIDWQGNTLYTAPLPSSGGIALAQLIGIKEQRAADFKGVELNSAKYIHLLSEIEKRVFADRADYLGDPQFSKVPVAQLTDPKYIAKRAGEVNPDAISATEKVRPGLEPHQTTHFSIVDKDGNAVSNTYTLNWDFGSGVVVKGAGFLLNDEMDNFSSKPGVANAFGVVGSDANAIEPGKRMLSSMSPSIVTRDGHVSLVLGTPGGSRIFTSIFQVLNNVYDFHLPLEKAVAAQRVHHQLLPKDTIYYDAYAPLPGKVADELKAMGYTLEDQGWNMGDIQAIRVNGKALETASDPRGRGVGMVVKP
As to the kind of experiment: Kinetic measurements with purified PnGGT ΔN24 D405N. The assay is classed as biochemical. Conditions: purified enzyme, 50 mM Tris-HCl (pH 9.0). How it is done:
as §1, §2

In a further assay the target is T2, EcGGT ΔN24 D433N (Escherichia coli, UniProt P18956, D433N).
T2 construct: made in house; host or cells: E. coli (pACT3 plasmid); assayed in whole cell lysate
As to the kind of experiment: Colorimetric GGT assay in whole cell lysates. The assay is classed as biochemical, E. coli. Conditions: whole cell lysate, 4 mM substrate, 50 mM Tris-HCl (pH 9.0), 410 nm. An excerpt: To test for the desired activity a colorimetric enzyme assay was chosen and the substrate sulfobutanoyl-p-nitroanilide was synthesized for this purpose. Hydrolysis of this colorless substrate by a GGT variant into sulfobutanoic acid and the yellow dye 4-nitroaniline can be quantified photometrically at 410 nm. For that, cytoplasmic GGT variants containing an N-terminal 6×His-tag were first expressed from E. coli (EcGGT ΔN24) and Pseudomonas nitroreducens (PnGGT ΔN24), as well as EcGGT ΔN24 D433N and the corresponding mutant variant PnGGT ΔN24 D405N. Position D405 of PnGGT was identified to fulfill the same function as position D433 of EcGGT by sequence alignment and homology modeling between EcGGT and PnGGT. Then the ability of whole cell lysates containing the respective enzymes was tested to hydrolyze L-glutamic acid γ-(3-carboxy-4-nitroanilide) or sulfobutanoyl-p-nitroanilide.

Regarding `O=C(CCCS(=O)(=O)O)Nc1ccc([N+](=O)[O-])cc1` [sodium salt], the “hydrolysis of substrate by purified enzyme” value at PnGGT ΔN24 is on record as “no detectable activity”. Moreover, the activity towards substrate result with PnGGT* D385Y is on record as “low activity”. In addition, the “activity towards substrate compared to PnGGT*” value in the assay with PnGGT* P505T is on record as “elevated activity; also recorded: slightly elevated in vitro activity”. The “growth with compound as sole sulfur source” value in the assay on BW25113 ΔleuB (TK080) is reported as “comparable to growth on other sulfonates”. Besides, on PnGGT ΔN24 D405N, the Km worked out at 767 µM, the maximal velocity (Vmax) was found to be 10.35 ± 0.28 µmol/min/mg and the kcat was 10.2 s⁻¹. For the same compound, the hydrolysis of substrate entry at EcGGT ΔN24 D433N is “acquired the ability to hydrolyze”.
